From PubChem BioAssay AID256 (DTP/NCI, 2004)
Values joined by “and” are separate entries in the source; they are usually repeats but may differ in a detail not shown here. Identical values can stand only once. Toxic doses and inconclusive results are not listed. How the source made its calls: active means survival T/C of 150% or more; inactive means T/C below 125% in these data.

System: CD2F1 mice, L1210 leukemia ip, survival T/C
Experiment: NCI In Vivo Anticancer Drug Screen. Data for tumor model L1210 Leukemia (intraperitoneal) in CD2F1 (CDF1) mice
Details: endpoint: mean survival time, higher = longer survival
Outline: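 Activity against a transplanted murine tumor was judged by comparing the compound group with a vehicle group. The outcome in the treated animals was divided by that in the controls.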

[1] = dose: 100.0 mg/kg/injection, schedule: Q01DX001 (ip), vehicle: saline with Tween-80
[2] = dose: 100.0 mg/kg/injection, schedule: Q01DX009 (ip), vehicle: saline with Tween-80
[3] = dose: 100.0 mg/kg/injection, schedule: Q04DX002 (ip), vehicle: saline with Tween-80
[4] = dose: 100.0 mg/kg/injection, schedule: Q04DX003 (ip), vehicle: saline with Tween-80
[5] = dose: 200.0 mg/kg/injection, schedule: Q01DX001 (ip), vehicle: saline with Tween-80
[6] = dose: 200.0 mg/kg/injection, schedule: Q01DX009 (ip), vehicle: saline with Tween-80
[7] = dose: 200.0 mg/kg/injection, schedule: Q04DX002 (ip), vehicle: saline with Tween-80
[8] = dose: 200.0 mg/kg/injection, schedule: Q04DX003 (ip), vehicle: saline with Tween-80
[9] = dose: 400.0 mg/kg/injection, schedule: Q01DX009 (ip), vehicle: saline with Tween-80
[10] = dose: 400.0 mg/kg/injection, schedule: Q04DX002 (ip), vehicle: saline with Tween-80
[11] = dose: 400.0 mg/kg/injection, schedule: Q04DX003 (ip), vehicle: saline with Tween-80
[12] = dose: 50.0 mg/kg/injection, schedule: Q01DX001 (ip), vehicle: saline with Tween-80
[13] = dose: 12.5 mg/kg/injection, schedule: Q04DX003 (ip), vehicle: water
[14] = dose: 25.0 mg/kg/injection, schedule: Q04DX003 (ip), vehicle: water
[15] = dose: 50.0 mg/kg/injection, schedule: Q04DX003 (ip), vehicle: water
[16] = dose: 100.0 mg/kg/injection, schedule: Q04DX003 (ip), vehicle: water
[17] = dose: 200.0 mg/kg/injection, schedule: Q04DX003 (ip), vehicle: water

Measured: T/C

COc1cc(C=Nc2cccc3ccccc23)cc(OC)c1OC
inactive: [1] 98 % of control | [2] 88 % of control and 93 % of control | [3] 89 % of control and 100 % of control | [4] 103 % of control | [5] 95 % of control | [6] 91 % of control and 96 % of control | [7] 89 % of control and 96 % of control | [8] 96 % of control | dose: 400.0 mg/kg/injection, schedule: Q01DX001 (ip), vehicle: saline with Tween-80 88 % of control | [9] 92 % of control and 95 % of control | [10] 96 % of control and 100 % of control | [11] 92 % of control

Nc1nc(=O)n(CCCOc2ccccc2NC(=O)c2ccc(S(=O)(=O)F)cc2)cc1-c1ccc(Cl)c(Cl)c1
inactive: [12] 96 % of control | [1] 93 % of control | [5] 93 % of control

CN(C)CCCC#N
inactive: dose: 50.0 mg/kg/injection, schedule: Q01DX009 (ip), vehicle: saline with Tween-80 96 % of control | [2] 102 % of control

COC(=O)c1csc(CCN)n1
inactive: dose: 100.0 mg/kg/injection, schedule: Q01DX009 (ip), vehicle: saline 102 % of control | dose: 200.0 mg/kg/injection, schedule: Q01DX009 (ip), vehicle: saline 95 % of control | dose: 400.0 mg/kg/injection, schedule: Q01DX009 (ip), vehicle: saline 92 % of control

NC1CCC(Br)C2CCCCC12 (stereo not given)
inactive: dose: 5.0 mg/kg/injection, schedule: Q01DX001 (ip), vehicle: saline with Tween-80 103 % of control | dose: 10.0 mg/kg/injection, schedule: Q01DX001 (ip), vehicle: saline with Tween-80 103 % of control | dose: 20.0 mg/kg/injection, schedule: Q01DX001 (ip), vehicle: saline with Tween-80 104 % of control

CCCCCCCCNC(C)=O
inactive: dose: 6.25 mg/kg/injection, schedule: Q01DX009 (ip), vehicle: saline with Tween-80 93 % of control | dose: 12.5 mg/kg/injection, schedule: Q01DX009 (ip), vehicle: saline with Tween-80 90 % of control | dose: 25.0 mg/kg/injection, schedule: Q01DX009 (ip), vehicle: saline with Tween-80 94 % of control

[Cl][Pt][Cl].[NH-]CC[NH-].[NH-]CC[NH-]
inactive: [13] 92 % of control and 100 % of control and 95 % of control | [14] 88 % of control and 89 % of control and 100 % of control | [15] 95 % of control and 97 % of control | [16] 90 % of control and 91 % of control and 95 % of control | [17] 95 % of control and 93 % of control

C#CC[N+](C)(C)CCNC(=O)CCCCCCCCCCCCCCC
inactive: dose: 75.0 mg/kg/injection, schedule: Q01DX001 (ip), vehicle: saline 102 % of control

Nc1ncnc2c1ncn2C1OC(COP(N)(N)=O)C(O)C1O (stereo not given)
inactive: dose: 12.5 mg/kg/injection, schedule: Q01DX005 (ip), vehicle: distilled water + Tween-80 105 % of control | dose: 25.0 mg/kg/injection, schedule: Q01DX005 (ip), vehicle: distilled water + Tween-80 98 % of control | dose: 50.0 mg/kg/injection, schedule: Q01DX005 (ip), vehicle: distilled water + Tween-80 96 % of control | dose: 100.0 mg/kg/injection, schedule: Q01DX005 (ip), vehicle: distilled water + Tween-80 102 % of control | dose: 200.0 mg/kg/injection, schedule: Q01DX005 (ip), vehicle: distilled water + Tween-80 96 % of control

O=C(Nc1ccc(S(=O)(=O)F)cc1)c1ccc([N+](=O)[O-])cc1
inactive: dose: 100.0 mg/kg/injection, schedule: Q01DX001 (ip), vehicle: saline 105 % of control | dose: 200.0 mg/kg/injection, schedule: Q01DX001 (ip), vehicle: saline 100 % of control | dose: 400.0 mg/kg/injection, schedule: Q01DX001 (ip), vehicle: saline 100 % of control

CCC1NC(=O)C(NC(=O)c2ncccc2O)C(C)OC(=O)C(c2ccccc2)NC(=O)C2CC(=O)CCN2C(=O)C(Cc2ccccc2)N(C)C(=O)C2CCCN2C1=O (stereo not given)
inactive: [3] 108 % of control | [7] 108 % of control

CC(=O)NC(C(=O)O)C(C)c1c[nH]c2ccccc12 (stereo not given)
inactive: [2] 104 % of control | [4] 97 % of control | [6] 96 % of control | [8] 97 % of control | [9] 95 % of control | [11] 91 % of control

O=C(N/N=C(/C(=N/NC(=O)c1ccccc1)c1ccccc1)c1ccccc1)c1ccccc1
inactive: [8] 91 % of control | [11] 87 % of control

O=C(c1ccccc1)C1CC2CCC1CC2 (stereo not given)
inactive: dose: 50.0 mg/kg/injection, schedule: Q04DX002 (ip), vehicle: saline with Tween-80 96 % of control | [3] 86 % of control | [7] 93 % of control | [10] 89 % of control

CSc1ccccc1N=Cc1cc(Cl)ccc1O
inactive: dose: 25.0 mg/kg/injection, schedule: Q01DX001 (ip), vehicle: saline with Tween-80 96 % of control | [12] 96 % of control | [1] 96 % of control

CC1(C)C=C(Cc2ccccc2)C(=O)c2ccccc21
inactive: [2] 94 % of control | [4] 96 % of control | [6] 97 % of control | [8] 100 % of control | [9] 97 % of control | [11] 97 % of control

CN(C)N=Nc1cc(C#N)cc(C#N)c1
inactive: dose: 79.0 mg/kg/injection, schedule: Q01DX009 (ip), vehicle: Klucel (hydroxypropylcellulose) (HPC) 110 % of control | dose: 118.0 mg/kg/injection, schedule: Q01DX009 (ip), vehicle: Klucel (hydroxypropylcellulose) (HPC) 110 % of control | dose: 177.0 mg/kg/injection, schedule: Q01DX009 (ip), vehicle: Klucel (hydroxypropylcellulose) (HPC) 119 % of control | dose: 266.0 mg/kg/injection, schedule: Q01DX009 (ip), vehicle: Klucel (hydroxypropylcellulose) (HPC) 113 % of control | dose: 400.0 mg/kg/injection, schedule: Q01DX009 (ip), vehicle: Klucel (hydroxypropylcellulose) (HPC) 89 % of control

O=C(O)C(=O)O.[Ru].c1cnc2c(c1)ccc1cccnc12.c1cnc2c(c1)ccc1cccnc12
inactive: dose: 3.13 mg/kg/injection, schedule: Q04DX003 (ip), vehicle: water 95 % of control | dose: 6.25 mg/kg/injection, schedule: Q04DX003 (ip), vehicle: water 96 % of control | [13] 93 % of control | [14] 93 % of control | [15] 95 % of control | [16] 91 % of control | [17] 90 % of control

Nc1cc(=O)[nH]c(=S)[nH]1.[Pt]
inactive: dose: 3.13 mg/kg/injection, schedule: Q04DX003 (ip), vehicle: distilled water + Tween-80 105 % of control | dose: 6.25 mg/kg/injection, schedule: Q04DX003 (ip), vehicle: distilled water + Tween-80 100 % of control | dose: 12.5 mg/kg/injection, schedule: Q04DX003 (ip), vehicle: distilled water + Tween-80 101 % of control | dose: 25.0 mg/kg/injection, schedule: Q04DX003 (ip), vehicle: distilled water + Tween-80 103 % of control | dose: 50.0 mg/kg/injection, schedule: Q04DX003 (ip), vehicle: distilled water + Tween-80 101 % of control | dose: 100.0 mg/kg/injection, schedule: Q04DX003 (ip), vehicle: distilled water + Tween-80 99 % of control | dose: 200.0 mg/kg/injection, schedule: Q04DX003 (ip), vehicle: distilled water + Tween-80 94 % of control

Clc1ccc(C[n+]2ccccc2)cc1Cl
inactive: dose: 5.0 mg/kg/injection, schedule: Q01DX009 (ip), vehicle: saline 98 % of control | dose: 10.0 mg/kg/injection, schedule: Q01DX009 (ip), vehicle: saline 104 % of control | dose: 10.0 mg/kg/injection, schedule: Q04DX003 (ip), vehicle: saline 100 % of control | dose: 20.0 mg/kg/injection, schedule: Q01DX009 (ip), vehicle: saline 98 % of control | dose: 20.0 mg/kg/injection, schedule: Q04DX003 (ip), vehicle: saline 94 % of control

CS(=O)(=O)OCC1NC(=O)C(COS(C)(=O)=O)NC1=O (stereo not given)
inactive: dose: 3.13 mg/kg/injection, schedule: Q01DX009 (ip), vehicle: water 103 % of control | dose: 6.25 mg/kg/injection, schedule: Q01DX009 (ip), vehicle: water 101 % of control | dose: 12.5 mg/kg/injection, schedule: Q01DX009 (ip), vehicle: water 105 % of control | dose: 25.0 mg/kg/injection, schedule: Q01DX009 (ip), vehicle: water 106 % of control | dose: 50.0 mg/kg/injection, schedule: Q01DX009 (ip), vehicle: water 101 % of control | dose: 100.0 mg/kg/injection, schedule: Q01DX009 (ip), vehicle: water 100 % of control

CN1C(=O)CC(c2ccc(NC(=O)CI)cc2)C1=O (stereo not given)
inactive: dose: 6.25 mg/kg/injection, schedule: Q04DX002 (ip), vehicle: saline with Tween-80 92 % of control | dose: 12.5 mg/kg/injection, schedule: Q04DX002 (ip), vehicle: saline with Tween-80 96 % of control
